This note sets out measurements from ChEMBL document CHEMBL2074487, “Effects of 12 Ca2+ antagonists on multidrug resistance, MDR1-mediated transport and MDR1 mRNA expression” (Eur J Pharm Sci, 2002).

The experiment deals with ATP-dependent translocase ABCB1 (Homo sapiens, UniProt P08183). Kind of experiment: TP_TRANSPORTER: inhibition of Digoxin transepithelial transport (basal to apical) (Digoxin: 0.1 uM) in MDR1-expressing LLC-PK1 cells. It is filed as functional, cell-based.
Chain of ATP-dependent translocase ABCB1 (P08183 whole entry): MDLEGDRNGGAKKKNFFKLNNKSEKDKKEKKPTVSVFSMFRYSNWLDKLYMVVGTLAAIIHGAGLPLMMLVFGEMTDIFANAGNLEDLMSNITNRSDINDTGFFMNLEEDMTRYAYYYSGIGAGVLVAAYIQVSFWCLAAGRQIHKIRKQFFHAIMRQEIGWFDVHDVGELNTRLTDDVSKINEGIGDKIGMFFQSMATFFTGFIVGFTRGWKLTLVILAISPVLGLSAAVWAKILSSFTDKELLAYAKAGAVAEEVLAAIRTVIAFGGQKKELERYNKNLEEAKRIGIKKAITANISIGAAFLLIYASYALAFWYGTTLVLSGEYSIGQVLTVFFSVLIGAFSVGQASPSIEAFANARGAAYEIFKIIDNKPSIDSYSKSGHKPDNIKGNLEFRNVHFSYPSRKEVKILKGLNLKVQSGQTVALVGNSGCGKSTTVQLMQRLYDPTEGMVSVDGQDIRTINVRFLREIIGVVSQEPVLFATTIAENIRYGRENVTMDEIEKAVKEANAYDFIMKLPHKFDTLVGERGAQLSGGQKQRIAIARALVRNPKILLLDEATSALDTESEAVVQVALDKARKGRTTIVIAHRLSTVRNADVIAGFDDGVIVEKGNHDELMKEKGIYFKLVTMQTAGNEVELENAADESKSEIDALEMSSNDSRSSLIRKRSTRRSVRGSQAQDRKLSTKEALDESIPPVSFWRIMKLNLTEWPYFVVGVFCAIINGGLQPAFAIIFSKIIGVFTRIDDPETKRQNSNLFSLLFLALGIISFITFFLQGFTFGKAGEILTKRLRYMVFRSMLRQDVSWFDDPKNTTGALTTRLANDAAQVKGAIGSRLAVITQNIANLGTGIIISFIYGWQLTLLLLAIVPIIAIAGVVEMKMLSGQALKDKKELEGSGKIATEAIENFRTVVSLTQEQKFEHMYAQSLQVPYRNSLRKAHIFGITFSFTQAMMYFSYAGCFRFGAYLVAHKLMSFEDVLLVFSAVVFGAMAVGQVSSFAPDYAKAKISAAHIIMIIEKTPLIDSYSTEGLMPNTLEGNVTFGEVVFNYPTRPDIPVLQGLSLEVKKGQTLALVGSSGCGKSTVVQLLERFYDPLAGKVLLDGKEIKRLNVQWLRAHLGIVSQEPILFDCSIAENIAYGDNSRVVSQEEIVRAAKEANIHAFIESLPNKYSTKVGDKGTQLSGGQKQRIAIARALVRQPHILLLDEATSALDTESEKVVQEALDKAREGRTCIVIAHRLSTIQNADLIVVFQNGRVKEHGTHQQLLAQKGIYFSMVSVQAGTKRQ
In turn, `COC(=O)C1=C(C)NC(C)=C(C(=O)O[C@@H]2CCCN(Cc3ccccc3)C2)C1c1cccc([N+](=O)[O-])c1` (some centres not stated) gave an IC50 of 4.96 µM. This lies in the single-digit micromolar range.
In turn, `COC(=O)C1=C(C)NC(C)=C(C(=O)OC)C1c1ccccc1[N+](=O)[O-]` [NIFEDIPINE] registered an IC50 of 472 µM.
In turn, `CC1=C(C(=O)OCCN(Cc2ccccc2)c2ccccc2)C(c2cccc([N+](=O)[O-])c2)C(P2(=O)OCC(C)(C)CO2)=C(C)N1` (configuration not stated) [EFONIDIPINE] returned an IC50 of 13 µM.
Regarding `COC(=O)C1=C(C#N)NC(C)=C(C(=O)OC(C)C)C1c1cccc([N+](=O)[O-])c1` (configuration not stated) [NILVADIPINE], the IC50 was found to be 18 µM.
As for `COC(=O)C1=C(C)NC(C)=C(C(=O)OCC(C)C)C1c1ccccc1[N+](=O)[O-]` (configuration not stated) [NISOLDIPINE], the IC50 is 44.1 µM.
With `COC(=O)C1=C(C)NC(C)=C(C(=O)O[C@H]2CCN(Cc3ccccc3)C2)[C@H]1c1cccc([N+](=O)[O-])c1` [BARNIDIPINE] the figure was 12.6 µM; with `CCOC(=O)C1=C(C)NC(C)=C(C(=O)OC)C1c1cccc([N+](=O)[O-])c1` (configuration not stated) [NITRENDIPINE], 68.2 µM.

The term IC50 denotes the concentration that inhibits the measured activity by half.
